Source: BigSolDB 2.1

O=c1ccc2ccccc2o1
solubility (mole fraction)
Settings | 278.15 K | 283.15 K | 288.15 K | 293.15 K | 298.15 K | 303.15 K | 308.15 K | 313.15 K | 318.15 K
in cyclohexane | – | 0.00162 | 0.00236 | 0.00321 | 0.00428 | 0.00607 | 0.00824 | 0.0111 | 0.0144
in ethanol | 0.0071 | 0.011 | 0.0205 | 0.0331 | 0.0533 | 0.0869 | 0.138 | 0.222 | 0.357
in isopropanol | 0.00371 | 0.00604 | 0.0108 | 0.0204 | 0.0351 | 0.0604 | 0.101 | 0.171 | 0.282
in methanol | 0.012 | 0.0182 | 0.0303 | 0.05 | 0.0802 | 0.122 | 0.199 | 0.32 | 0.484
in n-hexane | 0.000862 | 0.00118 | 0.00169 | 0.0024 | 0.00319 | 0.00421 | 0.00574 | 0.00746 | 0.00962
in n-propanol | 0.00521 | 0.00952 | 0.0172 | 0.0282 | 0.0469 | 0.0781 | 0.124 | 0.202 | 0.33
